Measurements reported in US20230192720A1, “MACROCYCLIC COMPOUNDS” (ZENO MANAGEMENT, INC., priority 2019, published 2023).

Experiments:
[1] = molecular target: Mcl-1 (Homo sapiens, UniProt Q07820); test: Mcl-1 Homogeneous Time Resolved Fluorescence (HTRF) binding assay
Procedure: Mcl-1 Homogeneous Time Resolved Fluorescence (HTRF) Assay
Binding to Bcl-2 proteins Mcl-1 was assessed using an HTRF assay. […] This binding can be monitored by HTRF signals between anti-GST-Tb and FAM-peptide using GST-tagged Bcl proteins. Assay conditions: 4 nM Mcl-1, 100 nM FAM-Bak peptide, in 20 mM K Phosphate, pH 7.5, 50 mM NaCl, 1 mM EDTA, 0.005% Triton X-100 and 1% DMSO (final). […] Compound stock solutions were added to protein solution using Acoustic technology. The compounds were then incubated with protein for 10 min at rt. The respective FAM labeled peptide was added and incubated for another 10 min. Anti-GST-Tb was added. After 60 min at rt, the HTRF fluorescence signal ratio was measured. Curve fits were performed in GraphPad Prism 4 with “sigmoidal dose-response (variable slope)”; 4 parameters with Hill Slope.

[2] = tested on: NCI-H929 cells; test: NCI-H929 cell proliferation assay (CellTiter-Glo); assay type: cell-based; settings: 72 h compound treatment
Procedure: NCI-H929 Cell Proliferation Assay
Cell proliferation was measured using the CellTiter-Glo® Luminescent Cell Viability Assay. The assay involved the addition of a single reagent (CellTiter-Glo® Reagent) directly to cells cultured in serum-supplemented medium. NCI-H929 (ATCC CRL-9068) cells were cultured according to ATCC recommendations and were seeded at 3,000 cells per well.
Each compound evaluated was prepared as a DMSO stock solution (10 mM). Compounds were tested in duplicate on each plate, with a 10-point serial dilution curve (1:3 dilution). Compound treatment ([…]) was added from the compound dilution plate to the cell plate. The highest compound concentration was 10 μM (final), with a 0.1% final DMSO concentration. Plates were then incubated at 37° C., 5% CO2. After 72 h of compound treatment, cell plates were equilibrated at rt for approximately 30 mins. An equi-volume amount of CellTiter-Glo® Reagent (40 μL) was added to each well. Plates were mixed for 2 mins on an orbital shaker to induce cell lysis and then incubated at rt for 10 mins to stabilize the luminescent signal. Luminescence was recorded using an Envision plate reader according to CellTiter-Glo protocol. IC50 of each compound was calculated using GraphPad Prism by nonlinear regression analysis.

Sequence of Mcl-1 (Q07820 whole entry): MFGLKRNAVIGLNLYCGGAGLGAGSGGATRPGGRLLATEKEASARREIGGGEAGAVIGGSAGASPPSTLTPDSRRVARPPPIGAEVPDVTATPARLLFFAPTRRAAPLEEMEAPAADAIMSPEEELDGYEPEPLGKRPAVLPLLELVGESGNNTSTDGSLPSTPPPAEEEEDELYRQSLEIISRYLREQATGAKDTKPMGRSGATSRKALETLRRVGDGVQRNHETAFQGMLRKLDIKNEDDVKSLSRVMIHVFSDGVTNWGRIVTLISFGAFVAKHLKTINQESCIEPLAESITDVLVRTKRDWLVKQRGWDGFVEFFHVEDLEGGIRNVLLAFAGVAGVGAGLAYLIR

Row | SMILES | IC50 [1] [nM] | IC50 ([2]; Homo sapiens, NCI-H929, 72 h) [nM] | IC50 [2] [nM]
1 | Cn1nc2cc1CSc1cc3c(c(c1)OCCCc1c(C(=O)O)n(C)c4c(c(Cl)ccc14)-c1c(nn4c1CCCC4)CSC2)NCCC3 (single isomer, unassigned) [Example 2A, (Ra)-(+)-(Z)-1^6-chloro-1^1,6^1-dimethyl-2^4,2^5,2^6,2^7,9^1,9^2,9^3,9^4-octahydro-1^1H,6^1H-10-oxa-4,8-dithia-9(6,8)-quinolina-2(3 ,2)-pyrazolo[1,5-a]pyridina-1(7 ,3)-indola-6(3,5)-pyrazolacyclotridecaphane-1^2-carboxylic acid] | < 10 | ≤ 100 | 
2 | CN1CCCc2cc3cc(c21)OCCCc1c(C(=O)O)n(C)c2c(c(Cl)ccc12)-c1c(nn2c1CCC2)CSCc1cc(n(C)n1)CS3 (atropisomer, axis not shown; (Ra)) [Example 13A, (Ra)-(+)-(Z)-1^6-Chloro-1^1,6^1,9^1-trimethyl-2^5,2^6,9^1,9^2,9^3,9^4-hexahydro-1^1H,2^4H,6^1H-10-oxa-4,8-dithia-9(6,8)-quinolina-1(7,3)-indola-2(3,2)-pyrrolo[1,2-b]pyrazola-6(3,5)-pyrazolacyclotridecaphane-1^2-carboxylic acid] |  | ≥ 1000 | 
3 | Cn1nc2cc1CSc1cc3c(c(c1)OCCCc1c(C(=O)O)n(C)c4c(c(Cl)ccc14)-c1c(nn4c1CCC4)CSC2)NCCC3 (atropisomer, axis not shown; (Sa)) [Example 1B, (Sa)-(−)-(Z)-1^6-Chloro-1^1,6^1-dimethyl-2^5,2^6,9^1,9^2,9^3,9^4-hexahydro-1^1H,2^4H,6^1H-10-oxa-4,8-dithia-9(6,8)-quinolina-1(7,3)-indola-2(3 ,2)-pyrrolo[1,2-b]pyrazola-6(3,5)-pyrazolacyclotridecaphane-1^2-carboxylic acid] |  | ≥ 1000 | 
4 | CN1Cc2cc(n(C)n2)CSc2cc3c(c(c2)OCCCc2c(C(=O)O)n(C)c4c(c(Cl)ccc24)-c2c(nn4c2CCCC4)C1)NCCC3 (atropisomer, axis not shown; (Sa)) [Example 4B, (Sa)-(−)-(Z)-1^6-Chloro-1^1,6^1,4-trimethyl-2^4,2^5,2^6,2^7,9^1,9^2,9^3,9^4-octahydro-1^1H,6^1H-10-oxa-8-thia-4-aza-9(6,8)-quinolina-2(3,2)-pyrazolo[1,5-a]pyridina-1(7,3)-indola-6(3,5)-pyrazolacyclotridecaphane-1^2-carboxylic acid] |  |  | ≤ 100
5 | Cc1nn(C23CC(C2)C3)c2c1-c1c(Cl)ccc3c(c(C(=O)O)n(C)c13)CCCOc1cc(cc3c1NCCC3)SCc1cc(nn1C)CSC2 (atropisomer, axis not shown; (Ra)) [Example 9A, (Ra)-(+)-(Z)-2^1-(Bicyclo [1.1.1]pentan-1-yl)-1^6-chloro-1^1,2^3,6^1-trimethyl-9^1,9^2,9^3,9^4-tetrahydro-1^1H,2^1H,6^1H-10-oxa-4,8-dithia-9(6,8)-quinolina-1(7,3)-indola-2(4,5),6(3,5)-dipyrazolacyclotridecaphane-1^2-carboxylic acid] |  |  | ≥ 1000
6 | CCn1nc(C)c2c1CSCc1cc(n(C)n1)CSc1cc3c(c(c1)OCCCc1c(C(=O)O)n(C)c4c-2c(Cl)ccc14)NCCC3 (atropisomer, axis not shown; (Sa)) [Example 14B, (Sa)-(−)-(Z)-1^6-Chloro-2^1-ethyl-1^1,2^3,6^1-trimethyl-9^1,9^2,9^3,9^4-tetrahydro-1^1H,2^1H,6^1H-10-oxa-4,8-dithia-9(6,8)-quinolina-1(7,3)-indola-2(4,5),6(3,5)-dipyrazolacyclotridecaphane-1^2-carboxylic acid] |  |  | ≥ 1000
7 | CO[C@H]1/C=C/C[C@H](C)[C@@H](C)S(=O)(=O)NC(=O)c2ccc3c(c2)N(C[C@@H]2CC[C@H]21)C[C@@]1(CCCc2cc(Cl)ccc21)CO3 [AMG176, reference compound] |  | 100 to 1000 | 
8 | Cn1nc2cc1CSc1cc3c(c(c1)OCCCc1c(C(=O)O)n(C)c4c(c(Cl)ccc14)-c1c(nn4c1CCC4)CSC2)NCCC3 (single isomer, unassigned) [Example 1A, (Ra)-(+)-(Z)-1^6-Chloro-1^1,6^1-dimethyl-2^5,2^6,9^1,9^2,9^3,9^4-hexahydro-1^1H,2^4H,6^1H-10-oxa-4,8-dithia-9(6,8)-quinolina-1(7,3)-indola-2(3,2)-pyrrolo[1,2-b]pyrazola-6(3,5)-pyrazolacyclotridecaphane-1^2-carboxylic acid] | < 10 | ≤ 100 | 
9 | CN1Cc2cc(n(C)n2)CCc2cc3c(c(c2)OCCCc2c(C(=O)O)n(C)c4c(c(Cl)ccc24)-c2c(nn4c2CCC4)C1)NCCC3 (atropisomer, axis not shown; (Sa)) [Example 5B, (Sa)-(−)-(Z)-1^6-Chloro-1^1,6^1,4-trimethyl-2^5,2^6,9^1,9^2,9^3,9^4-hexahydro-1^1H,2^4H,6^1H-10-oxa-4-aza-9(6,8)-quinolina-1(7,3)-indola-2(3,2)-pyrrolo[1,2-b]pyrazola-6(3,5)-pyrazolacyclotridecaphane-1^2-carboxylic acid] |  |  | ≥ 1000
